Here are results for two compounds from article PMC8896685 (PLoS ONE, 2022).

Usually EC50 stands for the midpoint of the concentration-response curve. Lower therefore signals greater potency. By half-life is commonly meant the time needed for the level to fall by half in the phase considered.

Numbered stars: 1 amine (or outer) side, 2 acyl side, 3 side chain; on linkers, the order of the positions; unused ones are H or OH. Square brackets hold non-standard residues; d marks the D form. Side chains are listed from the residue outwards. Peptide text beside a SMILES is read from it. * marks the point of attachment. C18 diacid = O=C(O)CCCCCCCCCCCCCCCCC(=O)*; γGlu = O=C(O)[C@H](CCC(=O)[*:2])N[*:1]; AEEA = NCCOCCOCC(=O)O; Aib = CC(C)(N)C(=O)O

One data set concerns DIO rats. Briefly: Oral glucose tolerance in DIO rats at steady state. The class given is in vivo, rat. The conditions noted are these: 3 nmol/kg s.c. once daily, 3 g/kg oral glucose, p<0.05. As to the method:
Oral glucose tolerance was evaluated on study day 15, 5 h post-dosing (at Cmax). Animals were fasted for 5 h prior to oral administration of glucose (3 g/kg). […] Conscious animals were MR-scanned prior to initiation of treatment and at the end of the treatment period.

Another data set addresses T1, Human GCGR (Homo sapiens, UniProt P47871).
T1 construct: a plasmid encoding either the glucagon receptor or the GLP-1 receptor from the relevant species; expressed in transfected cells
Briefly: Receptor potency, CRE-luciferase functional assay in BHK cells. The class given is cell-based. Conditions: Human receptors, whole BHK cells, 3 h 37°C, value (95% CI).

In a further data set the target is Human GLP-1R (Homo sapiens, UniProt P43220). The description is as above. It counts as cell-based. The conditions noted are these: Human receptors, whole BHK cells, 100% species-specific plasma, 3 h 37°C, value (95% CI).
Human GLP-1R, sequence (P43220 24-463): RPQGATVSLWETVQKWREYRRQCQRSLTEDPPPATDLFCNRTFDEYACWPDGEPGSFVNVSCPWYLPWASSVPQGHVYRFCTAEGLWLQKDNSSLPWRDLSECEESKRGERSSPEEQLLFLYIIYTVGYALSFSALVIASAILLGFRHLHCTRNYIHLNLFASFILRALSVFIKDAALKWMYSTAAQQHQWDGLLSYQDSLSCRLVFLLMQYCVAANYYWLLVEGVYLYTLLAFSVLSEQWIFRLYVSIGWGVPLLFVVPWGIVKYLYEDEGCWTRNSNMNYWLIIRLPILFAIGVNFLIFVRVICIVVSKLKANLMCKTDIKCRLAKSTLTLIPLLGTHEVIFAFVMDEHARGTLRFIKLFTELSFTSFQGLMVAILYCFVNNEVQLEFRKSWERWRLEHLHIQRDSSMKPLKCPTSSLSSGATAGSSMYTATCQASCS
A short description of a further data set: in vivo. Conditions: mouse, sc. The procedure: Compound exposure was measured by Luminescence Oxygen Channeling Immunoassay (LOCI). […] The three reactants were combined with the analyte and formed a two-sited immuno-complex. Illumination of the complex released singlet oxygen […] from the donor beads. They were channeled into the acceptor beads and triggered a chemiluminescence response which was measured in an EnVision plate reader (PerkinElmer). The amount of light was proportional to the concentration of the analyte. As calibrators, a dilution line of the relevant analyte in rat/mouse plasma was included.
Plasma concentration-time profiles were analysed using non-compartmental analysis (NCA) using Phoenix WinNonlin Professional 6.3 (Pharsight, Mountain View, CA, US). Calculations were performed using full concentration-time profile values or sparse sampling concentration-time values as appropriate.

The next data set deals with T2, Rat GLP-1R (Rattus norvegicus, UniProt P32301).
T2 construct: a plasmid encoding either the glucagon receptor or the GLP-1 receptor from the relevant species; expressed in transfected cells
T2 sequence (P32301 22-463): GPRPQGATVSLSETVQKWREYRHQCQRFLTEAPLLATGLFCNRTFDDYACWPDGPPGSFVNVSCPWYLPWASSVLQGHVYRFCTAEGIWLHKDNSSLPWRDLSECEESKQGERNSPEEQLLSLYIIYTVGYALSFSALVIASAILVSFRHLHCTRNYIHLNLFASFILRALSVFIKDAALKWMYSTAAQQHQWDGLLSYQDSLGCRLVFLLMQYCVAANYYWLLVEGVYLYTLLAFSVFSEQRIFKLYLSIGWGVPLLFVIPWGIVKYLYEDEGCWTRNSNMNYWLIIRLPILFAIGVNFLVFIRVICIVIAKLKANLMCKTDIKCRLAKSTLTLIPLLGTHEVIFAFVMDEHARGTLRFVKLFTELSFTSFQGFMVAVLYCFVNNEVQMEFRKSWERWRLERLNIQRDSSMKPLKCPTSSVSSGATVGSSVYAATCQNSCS
Kind of data set: Receptor potency, CRE-luciferase functional assay in BHK cells. The class given is cell-based. Conditions: Rat receptors, whole BHK cells, 0% plasma, 3 h 37°C, value (95% CI).

T1 sequence (P47871 26-477): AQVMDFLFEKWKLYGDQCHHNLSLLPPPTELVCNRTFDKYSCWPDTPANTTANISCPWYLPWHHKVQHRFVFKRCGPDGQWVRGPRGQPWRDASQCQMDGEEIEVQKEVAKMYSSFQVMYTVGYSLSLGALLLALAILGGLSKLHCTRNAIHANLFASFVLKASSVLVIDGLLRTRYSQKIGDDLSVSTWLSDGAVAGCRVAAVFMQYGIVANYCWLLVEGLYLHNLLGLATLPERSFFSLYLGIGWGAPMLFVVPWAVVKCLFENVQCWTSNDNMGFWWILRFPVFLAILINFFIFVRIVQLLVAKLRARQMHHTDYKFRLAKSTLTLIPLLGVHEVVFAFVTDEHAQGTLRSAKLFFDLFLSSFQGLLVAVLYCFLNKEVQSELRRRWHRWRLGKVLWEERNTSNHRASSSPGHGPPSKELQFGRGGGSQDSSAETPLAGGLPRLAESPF

In the case of `CC(C)C[C@H](NC(=O)[C@H](Cc1ccc(O)cc1)NC(=O)[C@H](CCCCN)NC(=O)[C@H](CO)NC(=O)[C@H](CC(C)C)NC(=O)[C@H](CC(=O)O)NC(=O)[C@H](CO)NC(=O)[C@@H](NC(=O)[C@H](Cc1ccccc1)NC(=O)[C@@H](NC(=O)CNC(=O)[C@H](CCC(N)=O)NC(=O)C(C)(C)NC(=O)[C@@H](N)Cc1c[nH]cn1)[C@@H](C)O)[C@@H](C)O)C(=O)N[C@@H](CCC(=O)O)C(=O)N[C@@H](CO)C(=O)N[C@@H](CCCCN)C(=O)N[C@@H](CCCNC(=N)N)C(=O)N[C@@H](C)C(=O)N[C@@H](CCCNC(=N)N)C(=O)N[C@@H](CCC(=O)O)C(=O)N[C@@H](Cc1ccccc1)C(=O)N[C@H](C(=O)N[C@@H](CCC(N)=O)C(=O)N[C@@H](Cc1c[nH]c2ccccc12)C(=O)N[C@@H](CC(C)C)C(=O)N[C@@H](CC(C)C)C(=O)N[C@@H](CCCCNC(=O)CC[C@H](NC(=O)CC[C@H](NC(=O)[C@H](CO)NC(=O)[C@H](CCC(=O)O)NC(=O)[C@H](CO)NC(=O)CC[C@H](NC(=O)CC[C@H](NC(=O)CCCCCCCCCCCCCCCCC(=O)O)C(=O)O)C(=O)O)C(=O)O)C(=O)O)C(=O)N[C@H](C(N)=O)[C@@H](C)O)C(C)C` [NN1177] (H-H[Aib]QGTFTSDLSKYLESKRAREFVQWLLK([γGlu-γGlu-Ser-Glu-Ser-γGlu-γGlu-C18 diacid])T-NH2), the “Oral glucose tolerance vs vehicle” value in the data set with DIO rats is reported as “significantly impaired”. The EC50 amounted to 1.83 pM at Human GCGR (GCGR EC50, pM (95% CI) 0% plasma, 0% plasma); 312 pM on Human GCGR (GCGR EC50, pM (95% CI) 100% plasma, 100% species-specific plasma); 0.149 nM on Human GLP-1R.

As for `CC(C)C[C@H](NC(=O)[C@H](CC(C)C)NC(=O)[C@H](Cc1c[nH]c2ccccc12)NC(=O)[C@H](CCC(N)=O)NC(=O)[C@@H](NC(=O)[C@H](Cc1ccccc1)NC(=O)[C@H](CCC(=O)O)NC(=O)[C@H](CCCNC(=N)N)NC(=O)[C@H](C)NC(=O)[C@H](C)NC(=O)[C@H](CCCNC(=N)N)NC(=O)[C@H](CO)NC(=O)[C@H](CC(=O)O)NC(=O)[C@H](CC(C)C)NC(=O)[C@H](Cc1ccc(O)cc1)NC(=O)[C@H](CCCCN)NC(=O)[C@H](CO)NC(=O)[C@H](CC(C)C)NC(=O)[C@H](CC(=O)O)NC(=O)[C@H](CO)NC(=O)[C@@H](NC(=O)[C@H](Cc1ccccc1)NC(=O)[C@@H](NC(=O)CNC(=O)[C@H](CCC(=O)O)NC(=O)C(C)(C)NC(=O)[C@@H](N)Cc1c[nH]cn1)[C@@H](C)O)[C@@H](C)O)C(C)C)C(=O)N[C@@H](CC(N)=O)C(=O)N[C@@H](CCCCNC(=O)CC[C@H](NC(=O)CC[C@H](NC(=O)COCCOCCNC(=O)COCCOCCNC(=O)CC[C@H](NC(=O)CCCCCCCCCCCCCCCCC(=O)O)C(=O)O)C(=O)O)C(=O)O)C(N)=O` [GLP-1 reference] (H-H[Aib]EGTFTSDLSKYLDSRAAREFVQWLLNK([γGlu-γGlu-AEEA-AEEA-γGlu-C18 diacid])-NH2), the half-life in the data set “in vivo” was 11 h. The EC50 at Rat GLP-1R is 0.00299 nM.
